Test results published in patent US6936609B2, “Imidazotriazines for use as phosphodiesterase inhibitors” (Bayer HealthCare AG, priority 2001, dated 2005).

Q: For `CCCc1nc(C)c2c(Nc3cccc(Br)c3)nc(-c3ccccc3OCC)nn12` [Example 39, N-(3-Bromophenyl)-2-(2-ethoxyphenyl)-5-methyl-7-propylimidazo[5,1-f]-[1,2,4]triazin-4-amine], which melting point is on record?
A: 96 °C

Q: Which melting point does the source give for `COc1cc(OC)cc(-c2nc(Nc3cc(OC)c(OC)c(OC)c3)c3c(C)nc(C)n3n2)c1` [Example 54, 2-(3,5-Dimethoxyphenyl)-5,7-dimethyl-N-(3,4,5-trimethoxyphenyl)imidazo[5,1-f]-[1,2,4]triazin-4-amine] here?
A: 176 to 179 °C

Q: For `COc1ccc(-c2nc(Nc3cc(C)c(OC)c(C)c3)c3c(C)nc(C4CCCC4)n3n2)cc1OC` [Example 15, 7-Cyclopentyl-2-(3,4-dimethoxyphenyl)-N-(4-methoxy-3,5-dimethylphenyl)-5-methylimidazo[5,1-f][1,2,4]triazin-4-amine], which melting point is on record?
A: 180 °C

Q: With `CCCc1nc(C)c2c(Nc3cc(OC)c(OC)c(OC)c3)nc(-c3ccccc3OCC)nn12` [Example 44, 2-(2-Ethoxyphenyl)-5-methyl-7-propyl-N-(3,4,5-trimethoxyphenyl)imidazo[5,1-f]-[1,2,4]triazin-4-amine] as the molecule, how does the melting point read?
A: 112 to 114 °C

Q: Which melting point does the source give for `COc1ccc(-c2nc(Nc3cc(C)c(OC)c(C)c3)c3c(C)nc(C)n3n2)cc1OC` [Example 14, 2-(3,4-Dimethoxyphenyl)-N-(4-methoxy-3,5-dimethylphenyl)-5,7-dimethylimidazo-[5,1-f][1,2,4]triazin-4-amine] here?
A: 173 °C

Q: Which melting point does the source give for `COc1ccc(-c2nc(Oc3cc(OC)c(OC)c(OC)c3)c3c(C)nc(CC(C)C)n3n2)cc1Cl` [Example 30, 2-(3-Chloro-4-methoxyphenyl)-7-isobutyl-5-methyl-4-(3,4,5-trimethoxyphenoxy)-imidazo[5,1-f][1,2,4]triazine] here?
A: 160 °C

Q: For `COc1cc(Oc2nc(-c3ccc(Br)cc3)nn3c(C)nc(C)c23)cc(OC)c1OC` [Example 28, 2-(4-Bromophenyl)-5,7-dimethyl-4-(3,4,5-trimethoxyphenoxy)imidazo[5,1-f]-[1,2,4]triazine], which melting point is on record?
A: 199 °C

Q: Which melting point does the source give for `CCCc1nc(C)c2c(NCc3ccc(OC)cc3OC)nc(-c3ccccc3OCC)nn12` [Example 46, N-(2,4-Dimethoxybenzyl)-2-(2-ethoxyphenyl)-5-methyl-7-propylimidazo[5,1-f]-[1,2,4]triazin-4-amine] here?
A: 98 to 99 °C

Q: With `COc1ccc(-c2nc(Oc3cc(OC)c(OC)c(OC)c3)c3c(C)nc(C)n3n2)cc1OC` [Example 22, 2-(3,4-Dimethoxyphenyl)-5,7-dimethyl-4-(3,4,5-trimethoxyphenoxy)imidazo[5,1-f]-[1,2,4]triazine] as the molecule, how does the melting point read?
A: 184 °C

Q: With `COc1ccc(-c2nc(Nc3ccc(OC)c(OC)c3)c3c(C)nc(C)n3n2)cc1Cl` [Example 33, 2-(3-Chloro-4-methoxyphenyl)-N-(3,4-dimethoxyphenyl)-5,7-dimethylimidazo-[5,1-f][1,2,4]triazin-4-amine] as the molecule, how does the melting point read?
A: 220 to 222 °C

Q: For `COc1ccc(Nc2nc(-c3ccc(OC)c(OC)c3)nn3c(C4CCCC4)nc(C)c23)cc1` [Example 20, 7-Cyclopentyl-2-(3,4-dimethoxyphenyl)-N-(4-methoxyphenyl)-5-methylimidazo-[5,1-f][1,2,4]triazin-4-amine], which melting point is on record?
A: 185 °C

Q: Which melting point does the source give for `CCCc1nc(C)c2c(Sc3ccc(NC(C)=O)cc3)nc(-c3ccccc3OCC)nn12` [Example 36, N-(4-{[2-(2-Ethoxyphenyl)-5-methyl-7-propylimidazo[5,1-f][1,2,4]triazin-4-yl]-sulphanyl}phenyl)acetamide] here?
A: 226 to 228 °C

Q: Which melting point does the source give for `CCCc1nc(C)c2c(Oc3cc(OC)c(OC)c(OC)c3)nc(-c3ccccc3OCC)nn12` [Example 101, 2-(2-Ethoxyphenyl)-5-methyl-7-propyl-4-(3,4,5-trimethoxyphenoxy)imidazo[5,1-f]-[1,2,4]triazine] here?
A: 153 °C

Q: Which melting point does the source give for `COc1ccc(-c2nc(Nc3cc(OC)c(OC)c(OC)c3)c3c(C)nc(C)n3n2)cc1Cl` [Example 34, 2-(3-Chloro-4-methoxyphenyl)-N-(3,4,5-trimethoxyphenyl)-5,7-dimethylimidazo-[5,1-f][1,2,4]triazin-4-amine] here?
A: 194 to 195 °C

Q: Which melting point does the source give for `COc1ccc(CNc2nc(-c3ccc(Br)cc3)nn3c(C)nc(C)c23)cc1OC` [Example 51, 2-(4-Bromophenyl)-N-(3,4-dimethoxybenzyl)-5,7-dimethylimidazo[5,1-f]-[1,2,4]triazin-4-amine] here?
A: 119 to 122 °C

Q: Which melting point does the source give for `COc1cccc(Nc2nc(-c3ccc(OC)c(OC)c3)nn3c(C4CCCC4)nc(C)c23)c1` [Example 23, 7-Cyclopentyl-2-(3,4-dimethoxyphenyl)-N-(3-methoxyphenyl)-5-methylimidazo-[5,1-f][1,2,4]triazin-4-amine] here?
A: 126 °C

Q: Which melting point does the source give for `CCc1nc(C2CCCC2)n2nc(-c3ccc(OC)c(S(=O)(=O)N4CCOCC4)c3)nc(Oc3cc(OC)c(OC)c(OC)c3)c12` [Example 25, 7-Cyclopentyl-5-ethyl-2-[4-methoxy-3-(4-morpholinylsulphonyl)phenyl]-4-(3,4,5-trimethoxyphenoxy)imidazo[5,1-f][1,2,4]triazine] here?
A: 119 °C

Q: With `COc1ccc(-c2nc(Oc3cc(OC)c(OC)c(OC)c3)c3c(C)nc(C)n3n2)cc1Cl` [Example 29, 2-(3-Chloro-4-methoxyphenyl)-5,7-dimethyl-4-(3,4,5-trimethoxyphenoxy)imidazo-[5,1-f][1,2,4]triazine] as the molecule, how does the melting point read?
A: 213 °C

Q: For `COc1ccc(-c2nc(SCc3cccnc3)c3c(C)nc(C)n3n2)cc1OC` [Example 4, 2-(3,4-Dimethoxyphenyl)-5,7-dimethyl-4-[(3-pyridinylmethyl)sulphanyl]imidazo-[5,1-f][1,2,4]triazine], which melting point is on record?
A: 161 °C

Q: With `CCc1nc(C2CCCC2)n2nc(-c3ccc(OC)cc3)nc(Nc3cc(OC)c(OC)c(OC)c3)c12` [Example 26, N-[7Cyclopentyl-5-ethyl-2-(4-methoxyphenyl)imidazo[5,1-f][1,2,4]triazin-4-yl]-N-(3,4,5-trimethoxyphenyl)amine] as the molecule, how does the melting point read?
A: 160 °C

Q: With `COc1cc(OC)cc(-c2nc(Oc3cc(OC)c(OC)c(OC)c3)c3c(C)nc(C)n3n2)c1` [Example 27, 2-(3,5-Dimethoxyphenyl)-5,7-dimethyl-4-(3,4,5-trimethoxyphenoxy)imidazo[5,1-f]-[1,2,4]triazine] as the molecule, how does the melting point read?
A: 220 °C

Q: For `COc1ccc(-c2nc(NCc3cc(OC)c(OC)c(OC)c3)c3c(C)nc(C4CCCC4)n3n2)cc1OC` [Example 17, 7-Cyclopentyl-2-(3,4-dimethoxyphenyl)-5-methyl-N-(3,4,5-trimethoxybenzyl)-imidazo[5,1-f][1,2,4]triazin-4-amine], which melting point is on record?
A: 188 °C

Q: For `CCOc1ccc(CCNc2nc(-c3ccc(Br)cc3)nn3c(C)nc(C)c23)cc1OC` [Example 35, 2-(4-Bromophenyl)-N-[2-(4-ethoxy-3-methoxyphenyl)ethyl]-5,7-dimethylimidazo-[5,1-f][1,2,4]triazin-4-amine], which melting point is on record?
A: 188 to 190 °C

Q: Which melting point does the source give for `COc1ccc(Nc2nc(-c3ccc(OC)c(OC)c3)nn3c(C)nc(C)c23)cc1Cl` [Example 13, N-(3-Chloro-4-methoxyphenyl)-2-(3,4-dimethoxyphenyl)-5,7-dimethylimidazo [5,1-f][1,2,4]triazin-4-amine] here?
A: 195 °C

Q: With `CCC(CC)c1nc(C)c2c(Oc3cc(OC)c(OC)c(OC)c3)nc(-c3ccc(OC)c(Cl)c3)nn12` [Example 32, 2-(3Chloro-4-methoxyphenyl)-7-(1-ethylpropyl)-5-methyl-4-(3,4,5-trimethoxyphenoxy)imidazo[5,1-f][1,2,4]triazine] as the molecule, how does the melting point read?
A: 166 °C
